Test results published in patent publication US20200317639A1, “POLYMORPHS OF N-[(2,6-DIFLUORO-3-METHOXYPHENYL)METHYL]-3-(METHOXYMETHYL)-1-({4-[(2-OXOPYRIDIN-1YL)METHYL]PHENYL}METHYL)PYRAZOLE-4-CARBOXAMIDE” (KALVISTA PHARMACEUTICALS LIMITED, priority 2016, published 2020).
“Also recorded” adds a separate entry of the source.

Assays:
[1] = system: rats; settings: systemic administration; cited from earlier work
[2] = in vivo; cited from earlier work
[3] = Gravimetric Vapour Sorption (GVS); assay type: physicochemical
Procedure: Gravimetric Vapour Sorption (GVS) data were collected using the following method: Approximately 10 mg of sample was placed into a wire-mesh vapour sorption balance pan and loaded into an ‘IgaSorp’ vapour sorption balance (Hiden Analytical Instruments). The sample was then dried by maintaining a 0% humidity environment until no further weight change was recorded. Subsequently, the sample was then subjected to a ramping profile from 0-90% RH at 10% RH increments, maintaining the sample at each step until equilibration had been attained (99% step completion). Upon reaching equilibration, the % RH within the apparatus was ramped to the next step and the equilibration procedure repeated. After completion of the sorption cycle, the sample was then dried using the same procedure. The weight change during the sorption/desorption cycles were then monitored, allowing for the hygroscopic nature of the sample to be determined.

[4] = Stability study, open vial, 40° C./75% RH, 7 and 28 days; assay type: physicochemical; settings: for XRPD change on storage: open glass vial covered with tissue
Procedure: Further evidence of the suitability of the crystalline forms for pharmaceutical development is provided by the stability data disclosed herein. Form 1 of N-[(2,6-difluoro-3-methoxyphenyl)methyl]-3-(methoxymethyl)-1-({4-[(2-oxopyridin-1-yl)methyl]phenyl}methyl)pyrazole-4-carboxamide was stored at 40° C./75% RH in a open glass vial covered with tissue. […] (FIG. 3).
A sample of Form 1 was placed in an open vial covered with tissue in a dessicator under accelerated stability conditions of 40° C./75% RH. The sample was reanalysed after 7 days and 28 days by XRPD, STA and DSC using the same methods as described above.

[5] = Stability study, 40° C./75% RH 6 months and 25° C./60% RH 12 months, packed; assay type: physicochemical
Procedure: Yet further evidence of the suitability of the crystalline forms for pharmaceutical development is provided by additional stability data disclosed herein. Form 1 of N-[(2,6-difluoro-3-methoxyphenyl)methyl]-3-(methoxymethyl)-1-({4-[(2-oxopyridin-1-yl)methyl]phenyl}methyl)pyrazole-4-carboxamide was stored separately at two conditions of 40° C./75% RH for 6 months and 25° C./60% RH for 12 months packed into double polyethylene bags inside an HDPE bottle sealed with a screw cap closure.
Further samples of Form 1 were stored separately at two conditions of 40° C./75% RH for 6 months and 25° C./60% RH for 12 months packed into double polyethylene bags inside an HDPE bottle sealed with a screw cap closure. In this stability study X-Ray Powder Diffraction patterns were collected on a PANalytical X'Pert PRO diffractometer using CuKα radiation (45 kV, 40 mA), θ-θ goniometer, focusing mirror (Cu W/Si), divergence slit (½°), soller slits at both incident and diffracted beam (0.04 RAD), fixed mask (4 mm) and a PIXcel detector. The software used for data collection was X′Pert Data Collector, version 2.2f. The instrument was performance checked using a certified Standard Reference Material 640 d, Silicon Powder (NIST). XRPD patterns were acquired under ambient conditions via a transmission foil sample stage (polyimide—Kapton, TF-475, 7.5 μm thickness film). The specimen was examined with approximately 5 mg of the sample examined as dispensed onto the sample stage. The data collection range was 2.994-35.0056° […] with a step size of 0.0263° and a continuous scan speed of 0.202004° s^−1. No change in the XRPD diffractogram was observed after 6 months at 40° C./75% RH or after 12 months at 25° C./60% RH (FIG. 16).
Further tests on the samples of Form 1 stored at 25° C./60% RH and 40° C./75% RH were carried out as described in the table below.

[6] = system: postoperative bleeding; settings: in vivo; cited from earlier work

N=C(N)c1ccc(CNC(=O)c2cnn(Cc3ccccc3)c2)cc1 [ASP-440]
Hematoma expansion [1]: reduced hematoma expansion
Oral availability [2]: poor oral availability

COCc1nn(Cc2ccc(Cn3ccccc3=O)cc2)cc1C(=O)NCc1c(F)ccc(OC)c1F [Form 1, N-[(2,6-difluoro-3-methoxyphenyl)methyl]-3-(methoxymethyl)-1-({4-[(2-oxopyridin-1-yl)methyl]phenyl}methyl)pyrazole-4-carboxamide]
Hygroscopicity by GVS [3]: absence of significant hygroscopicity
%-Wt (dry basis), Adsorption ([3]; 0.007 %-RH): 0.000001 %-Wt
%-Wt (dry basis), Adsorption ([3]; 0.008 %-RH): 0.001373 %-Wt
%-Wt (dry basis), Desorption ([3]; 0.32 %-RH): 0.002745 %-Wt
%-Wt (dry basis), Desorption ([3]; 5 %-RH): 0.04664 %-Wt
%-Wt (dry basis), Adsorption ([3]; 10.023 %-RH): 0.07544 %-Wt
%-Wt (dry basis), Desorption ([3]; 14.995 %-RH): 0.09053 %-Wt
%-Wt (dry basis), Adsorption ([3]; 20.021 %-RH): 0.1619 %-Wt
%-Wt (dry basis), Desorption ([3]; 24.99 %-RH): 0.1934 %-Wt
%-Wt (dry basis), Adsorption ([3]; 30.013 %-RH): 0.2634 %-Wt
%-Wt (dry basis), Desorption ([3]; 34.982 %-RH): 0.2908 %-Wt
%-Wt (dry basis), Adsorption ([3]; 40.002 %-RH): 0.3978 %-Wt
%-Wt (dry basis), Desorption ([3]; 44.976 %-RH): 0.4554 %-Wt
%-Wt (dry basis), Adsorption ([3]; 50.002 %-RH): 0.5926 %-Wt
%-Wt (dry basis), Desorption ([3]; 55.026 %-RH): 0.6474 %-Wt
%-Wt (dry basis), Adsorption ([3]; 59.996 %-RH): 0.8573 %-Wt
%-Wt (dry basis), Desorption ([3]; 65.02 %-RH): 1.033 %-Wt
%-Wt (dry basis), Adsorption ([3]; 69.993 %-RH): 1.311 %-Wt
%-Wt (dry basis), Desorption ([3]; 75.011 %-RH): 1.653 %-Wt
%-Wt (dry basis), Adsorption ([3]; 79.987 %-RH): 2.17 %-Wt
%-Wt (dry basis), Desorption ([3]; 85.005 %-RH): 2.905 %-Wt
%-Wt (dry basis), Adsorption ([3]; 89.98 %-RH): 4.173 %-Wt
%-Wt (dry basis), Desorption ([3]; 89.98 %-RH): 4.173 %-Wt
Reversibility of hydration (hysteresis) by GVS ([3]; FIG. 4): hydration is reversible (i.e. no significant hysteresis)
Increase in water content by GVS ([3]; normal conditions (up to 70% relative humidity)): only a relatively gradual increase in water content
XRPD change on storage ([4]; 40° C./75% RH, 7 days): no change
XRPD change on storage ([4]; 40° C./75% RH, 28 days): no change
DSC onset temperature ([4]; 40° C./75% RH, open vial, after 7 days): 155.2 °C
DSC onset temperature ([4]; 40° C./75% RH, open vial, after 28 days): 155.0 °C
DSC onset temperature ([4]; initial timepoint): 154.9 °C
Appearance ([5]; 25° C./60% RH, 12 months): As initial
Assay (% w/w on an anhydrous basis) ([5]; 25° C./60% RH, 12 months): 99.94 % w/w
Assay (% w/w “as-is”) ([5]; 25° C./60% RH, 12 months): 99.78 % w/w
DSC Onset ([5]; 25° C./60% RH, 12 months): Onset = 156.8 °C
DSC Peak ([5]; 25° C./60% RH, 12 months): Peak = 159.5 °C
Purity (% area) ([5]; 25° C./60% RH, 12 months): 100 % area
Water content (% w/w) ([5]; 25° C./60% RH, 12 months): 0.12 % w/w
XRPD ([5]; 25° C./60% RH, 12 months): no change; also recorded: As initial
Appearance ([5]; 40° C./75% RH, 6 months): As initial
Assay (% w/w on an anhydrous basis) ([5]; 40° C./75% RH, 6 months): 99.31 % w/w
Assay (% w/w “as-is”) ([5]; 40° C./75% RH, 6 months): 99.1 % w/w
DSC Onset ([5]; 40° C./75% RH, 6 months): Onset = 157.5 °C
DSC Peak ([5]; 40° C./75% RH, 6 months): Peak = 159.8 °C
Impurity Profile by HPLC (% area), Approx RRT 1.16 ([5]; 40° C./75% RH, 6 months): 0.03 % area
Purity (% area) ([5]; 40° C./75% RH, 6 months): 99.99 % area
Water content (% w/w) ([5]; 40° C./75% RH, 6 months): 0.17 % w/w
XRPD ([5]; 40° C./75% RH, 6 months): no change; also recorded: As initial
Appearance ([5]; Initial, 0 months): A white solid. Free from
Assay (% w/w on an anhydrous basis) ([5]; Initial, 0 months): 100.18 % w/w
DSC Onset ([5]; Initial, 0 months): Onset = 156.3 °C
DSC Peak ([5]; Initial, 0 months): Peak = 158.9 °C
Impurity Profile by HPLC (% area), Approx RRT 1.12 ([5]; Initial, 0 months): 0.03 % area
Purity (% area) ([5]; Initial, 0 months): 100 % area
Water content (% w/w) ([5]; Initial, 0 months): 0.19 % w/w
XRPD ([5]; Initial, 0 months): Conforms to Form 1
All measured parameters including Assay, Water Content, XRPD, DSC, Purity and Impurity Profile ([5]; over the course of the study (6 months 40° C./75% RH, 12 months 25° C./60% RH)): remained unchanged

COCc1nn(Cc2ccc(Cn3ccccc3=O)cc2)cc1C(=O)NCc1c(F)ccc(OC)c1F [Form A, N-[(2,6-Difluoro-3-methoxyphenyl)methyl]-3-(methoxymethyl)-1-({4-[(2-oxopyridin-1-yl)methyl]phenyl}methyl)pyrazole-4-carboxamide]
%-Wt (dry basis), Desorption ([3]; 0.01 %-RH): 1.174 %-Wt
%-Wt (dry basis), Adsorption ([3]; 0.012 %-RH): 0.003304 %-Wt
%-Wt (dry basis), Adsorption ([3]; 0.013 %-RH): 0.004135 %-Wt
%-Wt (dry basis), Desorption ([3]; 5.002 %-RH): 2.121 %-Wt
%-Wt (dry basis), Adsorption ([3]; 10.022 %-RH): 0.3314 %-Wt
%-Wt (dry basis), Desorption ([3]; 15.039 %-RH): 3.537 %-Wt
%-Wt (dry basis), Adsorption ([3]; 20.014 %-RH): 0.7833 %-Wt
%-Wt (dry basis), Desorption ([3]; 25.192 %-RH): 5.219 %-Wt
%-Wt (dry basis), Adsorption ([3]; 30.014 %-RH): 1.246 %-Wt
%-Wt (dry basis), Desorption ([3]; 34.985 %-RH): 6.774 %-Wt
%-Wt (dry basis), Adsorption ([3]; 40.009 %-RH): 1.892 %-Wt
%-Wt (dry basis), Desorption ([3]; 44.978 %-RH): 7.808 %-Wt
%-Wt (dry basis), Adsorption ([3]; 49.999 %-RH): 2.49 %-Wt
%-Wt (dry basis), Desorption ([3]; 55.023 %-RH): 8.516 %-Wt
%-Wt (dry basis), Adsorption ([3]; 59.993 %-RH): 3.239 %-Wt
%-Wt (dry basis), Desorption ([3]; 65.019 %-RH): 9.185 %-Wt
%-Wt (dry basis), Adsorption ([3]; 69.992 %-RH): 4.507 %-Wt
%-Wt (dry basis), Desorption ([3]; 75.011 %-RH): 9.927 %-Wt
%-Wt (dry basis), Adsorption ([3]; 79.981 %-RH): 7.117 %-Wt
%-Wt (dry basis), Desorption ([3]; 85.009 %-RH): 10.43 %-Wt
%-Wt (dry basis), Adsorption ([3]; 89.98 %-RH): 10.71 %-Wt
%-Wt (dry basis), Desorption ([3]; 89.98 %-RH): 10.71 %-Wt

aprotinin
Postoperative bleeding [6]: may be used to decrease postoperative bleeding
